Where two headings read alike, the source gives them in different places. Starred links: 1 amine or outer side, 2 acyl side, 3 side chain; linkers in the order of their positions; H or OH if unused. Non-standard residues stand in square brackets, D forms with d. Residues, ends and D or L forms follow the SMILES beside them. Groups on a side chain read outwards from the residue. *: point of attachment. C18 diacid = O=C(O)CCCCCCCCCCCCCCCCC(=O)*; γGlu = O=C(O)[C@H](CCC(=O)[*:2])N[*:1]; AEEA = NCCOCCOCC(=O)O; Aib = CC(C)(N)C(=O)O
How the values were obtained:
[1] = biological target: T1, human CRF2α receptor (Homo sapiens, UniProt Q13324); test: cAMP agonism at human CRF2 α receptor in TeloHEAC cells (Example 7); type: cell-based; conditions: cAMP HTRF, TeloHEAC cells stably expressing human CRF2 α
T1 construct: expressed in transfected cells; host or cells: TeloHEAC
T1 sequence (Q13324 1-411): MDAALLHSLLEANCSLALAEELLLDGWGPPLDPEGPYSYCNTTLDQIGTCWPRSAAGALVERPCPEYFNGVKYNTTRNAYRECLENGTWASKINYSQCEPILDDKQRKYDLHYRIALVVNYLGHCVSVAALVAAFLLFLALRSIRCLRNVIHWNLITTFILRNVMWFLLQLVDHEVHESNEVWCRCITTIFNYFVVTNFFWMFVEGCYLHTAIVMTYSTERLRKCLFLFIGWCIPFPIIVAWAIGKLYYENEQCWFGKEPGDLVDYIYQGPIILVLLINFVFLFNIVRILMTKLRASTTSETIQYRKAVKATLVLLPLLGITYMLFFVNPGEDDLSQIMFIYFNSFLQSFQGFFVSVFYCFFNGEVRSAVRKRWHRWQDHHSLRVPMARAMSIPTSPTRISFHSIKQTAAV
Outline: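 Cryopreserved cells are thawed, washed and resuspended in IBMX-containing (2 mM) HEPES-buffered HBSS with or without 0.1% HSA. Compound incubation runs 30 min at room temperature with 2000 cells per well, then cAMP is measured by time-resolved FRET. Potency is expressed as EC50, efficacy relative to urocortin 2 at 1000 nM.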

[2] = biological target: T2, CRF1R receptor (Homo sapiens, UniProt P34998); test: cAMP activity at anti-target CRF1R, CHO-K1 cell line clone 2 (Example 19.10); type: cell-based; conditions: CRF1R CHO-K1 clone 2; for EC50: 0% HSA, read-out: EC50 [nM] 0% HSA; for Emax: 100% = Sauvagine at 100 nM
T2 construct: host or cells: CHO-K1 clone 2
T2 sequence (P34998 24-415): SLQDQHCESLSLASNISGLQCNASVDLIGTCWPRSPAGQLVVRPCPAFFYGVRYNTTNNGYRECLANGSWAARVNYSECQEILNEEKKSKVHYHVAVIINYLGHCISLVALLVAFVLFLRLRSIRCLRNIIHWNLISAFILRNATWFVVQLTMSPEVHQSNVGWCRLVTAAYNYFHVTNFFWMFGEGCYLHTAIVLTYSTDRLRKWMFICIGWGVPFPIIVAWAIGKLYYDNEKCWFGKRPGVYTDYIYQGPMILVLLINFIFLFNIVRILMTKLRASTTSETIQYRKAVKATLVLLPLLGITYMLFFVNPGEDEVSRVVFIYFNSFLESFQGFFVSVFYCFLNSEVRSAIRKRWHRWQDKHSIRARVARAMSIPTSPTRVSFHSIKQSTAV
Outline: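 The cAMP read-out used the same protocol as the previous assay, except that Sauvagine at 100 nM set the 100% activation control. Cells were CHO-K1 clone 2 overexpressing CRF1R, cultured in F12 medium with 10% FBS and G418 and stored frozen until use.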

[3] = 0% HSA, read-out: EC50 [nM], 0% HSA
[4] = 0.1% HSA, read-out: EC50 [nM], 0.1% HSA

| SMILES | EC50 [1, 3] [nM] | EC50 [1, 4] [nM] | EC50 [2] [nM] | Emax [2] [%] |
| --- | --- | --- | --- | --- |
| CC[C@H](C)[C@H](N)C(=O)N[C@H](C(=O)N[C@@H](CC(C)C)C(=O)N[C@@H](CO)C(=O)N[C@@H](CC(C)C)C(=O)N[C@@H](CC(=O)O)C(=O)N[C@@H](C(=O)N1CCC[C@H]1C(=O)N[C@H](C(=O)N[C@@H](CCCCN)C(=O)N[C@@H](CC(C)C)C(=O)N[C@@H](CCCCNC(=O)COCCOCCNC(=O)COCCOCCNC(=O)CC[C@H](NC(=O)CCCCCCCCCCCCCCCCC(=O)O)C(=O)O)C(=O)N[C@@H](CCC(N)=O)C(=O)N[C@H](C(=O)N[C@@H](CC(C)C)C(=O)N[C@@H](CC(C)C)C(=O)N[C@@H](CCC(=O)O)C(=O)N[C@@H](CCC(N)=O)C(=O)N[C@@H](C)C(=O)N[C@@H](CCCCN)C(=O)N[C@@H](CCC(N)=O)C(=O)N[C@@H](CCCCN)C(=O)NC(C)(C)C(=O)N[C@@H](CCC(N)=O)C(=O)N[C@@H](CCCNC(=N)N)C(=O)N[C@@H](C)C(=O)N[C@@H](CCC(N)=O)C(=O)N[C@@H](C)C(=O)N[C@@H](CCC(=O)O)C(=O)N[C@@H](CCCCN)C(=O)N[C@@H](CC(N)=O)C(=O)N[C@@H](CCCCN)C(=O)N[C@@H](CCCNC(=N)N)C(=O)N[C@H](C(=O)N[C@@H](CC(C)C)C(=O)N[C@@H](CCC(=O)O)C(=O)N[C@@H](CCCNC(=N)N)C(=O)N[C@H](C(N)=O)C(C)C)[C@@H](C)CC)[C@@H](C)CC)[C@@H](C)CC)C(C)C)C(C)C [compound 126] (H-IVLSLD[dV]PIKLK([AEEA-AEEA-γGlu-C18 diacid])QILLEQAKQK[Aib]QRAQAEKNKRILERV-NH2; N-terminus assumed) | 0.22 | 5.59 | > 100 | 36.5 |
| CC[C@H](C)[C@H](N)C(=O)N[C@H](C(=O)N[C@@H](CC(C)C)C(=O)N[C@@H](CO)C(=O)N[C@@H](CC(C)C)C(=O)N[C@@H](CC(=O)O)C(=O)N[C@@H](C(=O)N1CCC[C@H]1C(=O)N[C@H](C(=O)N[C@@H](CCCCN)C(=O)N[C@@H](CC(C)C)C(=O)N[C@@H](CCCCNC(=O)COCCOCCNC(=O)COCCOCCNC(=O)CC[C@H](NC(=O)CCCCCCCCCCCCCCCCC(=O)O)C(=O)O)C(=O)N[C@@H](CCC(N)=O)C(=O)N[C@H](C(=O)N[C@@H](CC(C)C)C(=O)N[C@@H](CC(C)C)C(=O)N[C@@H](CCCCN)C(=O)N[C@@H](CCC(N)=O)C(=O)N[C@@H](CCC(=O)O)C(=O)N[C@@H](CCCNC(=N)N)C(=O)N[C@@H](CCC(N)=O)C(=O)N[C@@H](CCCCN)C(=O)NC(C)(C)C(=O)N[C@@H](CCC(N)=O)C(=O)N[C@@H](CCCNC(=N)N)C(=O)N[C@@H](CCC(=O)O)C(=O)N[C@@H](CCCCN)C(=O)N[C@@H](C)C(=O)N[C@@H](CCC(=O)O)C(=O)N[C@@H](CCCCN)C(=O)N[C@@H](CC(N)=O)C(=O)N[C@@H](CCCCN)C(=O)N[C@@H](CCC(N)=O)C(=O)N[C@H](C(=O)N[C@@H](CC(C)C)C(=O)N[C@@H](C)C(=O)N[C@@H](CCC(N)=O)C(=O)N[C@H](C(N)=O)C(C)C)[C@@H](C)CC)[C@@H](C)CC)[C@@H](C)CC)C(C)C)C(C)C [compound 134] (H-IVLSLD[dV]PIKLK([AEEA-AEEA-γGlu-C18 diacid])QILLKQERQK[Aib]QREKAEKNKQILAQV-NH2; N-terminus assumed) | 0.07 | 3.44 | > 100 | -8.6 |
| CC[C@H](C)[C@H](N)C(=O)N[C@H](C(=O)N[C@@H](CC(C)C)C(=O)N[C@@H](CO)C(=O)N[C@@H](CC(C)C)C(=O)N[C@@H](CC(=O)O)C(=O)N[C@H](C(=O)N1CCC[C@H]1C(=O)N[C@H](C(=O)NCC(=O)N[C@@H](CC(C)C)C(=O)N[C@@H](CCCCNC(=O)COCCOCCNC(=O)COCCOCCNC(=O)CC[C@H](NC(=O)CCCCCCCCCCCCCCCCC(=O)O)C(=O)O)C(=O)N[C@@H](CCC(N)=O)C(=O)N[C@H](C(=O)N[C@@H](CC(C)C)C(=O)N[C@@H](CC(C)C)C(=O)N[C@@H](CCCCN)C(=O)N[C@@H](CCC(N)=O)C(=O)N[C@@H](CCC(=O)O)C(=O)N[C@@H](CCCNC(=N)N)C(=O)N[C@@H](CCC(N)=O)C(=O)N[C@@H](CCCCN)C(=O)N[C@@H](CCCCN)C(=O)NC(C)(C)C(=O)N[C@@H](CCCNC(=N)N)C(=O)N[C@@H](CCC(=O)O)C(=O)N[C@@H](CCC(N)=O)C(=O)N[C@@H](C)C(=O)N[C@@H](CCC(=O)O)C(=O)N[C@H](C(=O)N[C@@H](CC(N)=O)C(=O)N[C@@H](CCCCN)C(=O)N[C@@H](CCCNC(=N)N)C(=O)N[C@H](C(=O)N[C@@H](CC(C)C)C(=O)N[C@@H](CCC(=O)O)C(=O)N[C@@H](CCCNC(=N)N)C(=O)N[C@H](C(N)=O)C(C)C)[C@@H](C)CC)[C@@H](C)O)[C@@H](C)CC)[C@@H](C)CC)C(C)C)C(C)C [compound 148] (H-IVLSLDVPIGLK([AEEA-AEEA-γGlu-C18 diacid])QILLKQERQKK[Aib]REQAETNKRILERV-NH2; N-terminus assumed) | 0.29 | 14.3 | > 100 | 2.6 |
| CC[C@H](C)[C@H](N)C(=O)N[C@H](C(=O)N[C@@H](CC(C)C)C(=O)N[C@@H](CO)C(=O)N[C@@H](CC(C)C)C(=O)N[C@@H](CC(=O)O)C(=O)N[C@@H](C(=O)N1CCC[C@H]1C(=O)N[C@H](C(=O)N[C@@H](CCCCN)C(=O)N[C@@H](CC(C)C)C(=O)N[C@@H](CCCCNC(=O)COCCOCCNC(=O)COCCOCCNC(=O)CC[C@H](NC(=O)CCCCCCCCCCCCCCCCC(=O)O)C(=O)O)C(=O)N[C@@H](CCC(N)=O)C(=O)N[C@H](C(=O)N[C@@H](CC(C)C)C(=O)N[C@@H](CC(C)C)C(=O)N[C@@H](CCCCN)C(=O)N[C@@H](CCC(N)=O)C(=O)N[C@@H](CCC(=O)O)C(=O)N[C@@H](CCCNC(=N)N)C(=O)N[C@@H](CCC(N)=O)C(=O)N[C@@H](CCCCN)C(=O)N[C@@H](CCCCN)C(=O)NC(C)(C)C(=O)N[C@@H](CCCNC(=N)N)C(=O)N[C@@H](CCC(=O)O)C(=O)N[C@@H](CCC(N)=O)C(=O)N[C@@H](C)C(=O)N[C@@H](CCC(=O)O)C(=O)N[C@H](C(=O)N[C@@H](CC(N)=O)C(=O)N[C@@H](CCCCN)C(=O)N[C@@H](CCCNC(=N)N)C(=O)N[C@H](C(=O)N[C@@H](CC(C)C)C(=O)N[C@@H](CCC(=O)O)C(=O)N[C@@H](CCCNC(=N)N)C(=O)N[C@H](C(N)=O)C(C)C)[C@@H](C)CC)[C@@H](C)O)[C@@H](C)CC)[C@@H](C)CC)C(C)C)C(C)C [compound 149] (H-IVLSLD[dV]PIKLK([AEEA-AEEA-γGlu-C18 diacid])QILLKQERQKK[Aib]REQAETNKRILERV-NH2; N-terminus assumed) | 0.06 | 2.54 | > 100 | 6.6 |
| CC[C@H](C)[C@H](N)C(=O)N[C@H](C(=O)N[C@@H](CC(C)C)C(=O)N[C@@H](CO)C(=O)N[C@@H](CC(C)C)C(=O)N[C@@H](CC(=O)O)C(=O)N[C@@H](C(=O)N1CCC[C@H]1C(=O)N[C@H](C(=O)NCC(=O)N[C@@H](CC(C)C)C(=O)N[C@@H](CCCCNC(=O)COCCOCCNC(=O)COCCOCCNC(=O)CC[C@H](NC(=O)CCCCCCCCCCCCCCCCC(=O)O)C(=O)O)C(=O)N[C@@H](CCC(N)=O)C(=O)N[C@H](C(=O)N[C@@H](CC(C)C)C(=O)N[C@@H](CC(C)C)C(=O)N[C@@H](CCCCN)C(=O)N[C@@H](CCC(N)=O)C(=O)N[C@@H](CCC(=O)O)C(=O)N[C@@H](CCCNC(=N)N)C(=O)N[C@@H](CCC(N)=O)C(=O)N[C@@H](CCCCN)C(=O)N[C@@H](CCCCN)C(=O)NC(C)(C)C(=O)N[C@@H](CCCNC(=N)N)C(=O)N[C@@H](CCC(N)=O)C(=O)N[C@@H](CCC(N)=O)C(=O)N[C@@H](C)C(=O)N[C@@H](CCC(=O)O)C(=O)N[C@H](C(=O)N[C@@H](CC(N)=O)C(=O)N[C@@H](CCCCN)C(=O)N[C@@H](CCCNC(=N)N)C(=O)N[C@H](C(=O)N[C@@H](CC(C)C)C(=O)N[C@@H](CCC(=O)O)C(=O)N[C@@H](CCCNC(=N)N)C(=O)N[C@H](C(N)=O)C(C)C)[C@@H](C)CC)[C@@H](C)O)[C@@H](C)CC)[C@@H](C)CC)C(C)C)C(C)C [compound 150] (H-IVLSLD[dV]PIGLK([AEEA-AEEA-γGlu-C18 diacid])QILLKQERQKK[Aib]RQQAETNKRILERV-NH2; N-terminus assumed) | 0.07 | 3.99 | > 100 | 7.2 |

— patent publication US12679878B2, “CRF2 receptor agonists and their use in therapy” (SANOFI, priority 2020, dated 2026)
